The values that follow come from patent US20240117334A1, “FACTOR B PROTEASES” (Vertex Pharmaceuticals Incorporated, priority 2021, published 2024).

Format in all cases: biochemical
Data set [1] has as its system 20% Normal Human Serum, rabbit red blood cells. Put plainly: Standard Alternative Pathway (AP) RBC hemolysis assay. Also on record: unit of the concentration uncertain. Here is the method:
(§1) Percent lysis was calculated using the following formula: [(OD415 of sample−OD415 EDTA negative control)/(OD415 saline positive control-OD415 EDTA)*100 ] (Table 17A and Table 17B). IC50s were calculated by nonlinear regression (Prism 9, log(inhibitor,bv) vs. response-4 parameter variable slope model) (Table 18A and Table 18B).

Data set [2] deals with human Factor B depleted sera with Factor B, rabbit red blood cells. As to the kind of experiment: Enhanced AP RBC hemolysis assay (Factor B depleted sera with Factor B spiked back). Also on record: unit of the concentration uncertain. Here is the method: as §1
For data set [3], the system named is Human Factor B digests in human Factor B Depleted Serum, rabbit red blood cells. Put plainly: Hemolysis assay with Factor B digests (KLK5 and chymase-based protease). To be noted: 4 μM Factor B digested 1 hour at 37° C., 15% serum. Here is the method: FIG. 7A depicts a graph showing hemolysis inhibition by KLK5 and compared with a chymase-based engineered protease C22S/F173Y/D175N/A226R. All references in this Example to engineered proteases are depicted in chymotrypsin numbering. The chymotrypsin numbering key for the modified protease domains of engineered proteases are found in Tables 2, 4, and 6 for uPA, MTSP-1, and chymase, respectively. Briefly, a digestion reaction was prepared with 4.0 μM of Human Factor B (Complement Technologies) in 20 μL buffer (50 mM Tris pH 7.4/50 mM NaCl/0.01% Tween 20). Different concentration of the KLK5 protease or the chymase-based engineered protease C22S/F173Y/D175N/A226R (400, 200, 100, 50, 25, 12.5, 6.25, 3.125, 1.56, 0.78, and 0.39 with a control at 0.0 nM) were added to 4 μM of Factor B and incubated for 1 hour at 37° C. After digestion, 6 μL of the reaction was evaluated in a hemolysis assay.
The Factor B digestion reactions were diluted in 20 μL of GVB (Complement Technologies), 10 mM MgCl2 and 8 mM EGTA (GVB/Mg/EGTA). 45 μL of human Factor B Depleted Serum (Complement Technologies) was then added to 5 μL of human Factor B digests to obtain a final volume of 90% serum. In parallel, 50 μL of rabbit red blood cells (Colorado Serum Co.) were diluted into 950 μL of GVB/Mg/EGTA and mixed gently. […] The plate absorbance was read at 415 nm with a spectrophotometer and the EC50 was calculated.

Data set [4] addresses T1, Human Factor B (Homo sapiens, UniProt P00751). As to the kind of experiment: Factor B cleavage by KLK5, Factor B ELISA. To be noted: 4 μM Factor B, 1 hour at 37° C., two stocks. Here is the method: FIG. 7B depicts a graph showing Factor B cleavage with KLK5 and a chymase-based engineered protease C22S/F173Y/D175N/A226R. Briefly, A digestion reaction is prepared with 4.0 uM of Human Factor B (Complement Technologies) in 20 μL buffer (50 mM Tris pH 7.4/50 mM NaCl/0.01% Tween 20). Different concentrations of KLK5 (400, 200, 100, 50, 25, 12.5, 6.25, 3.125, 1.56, 0.78, and 0.39 with a control at 0.0 nM) are added to 4 μM of factor B and incubated for 1 hour at 37° C. After digestion, 15 μL of the reaction is transferred to a 96 well plate with 1.5 μL of 0.2N HCL. After quenching, the reactions are prepared factor B ELISA.
A Factor B standard curve is made with 800, 533.3, 355.5, 237.0, 158.0, 105.3, 70.2, 46.8, 31.2, 20.8, 0.0 pM in 1% BSA-PBST. A 384 well plate was coated with the monoclonal antibody against human Factor Ba (#A225, Quidel) at 2 μg/mL in carbonate buffer (25 μL/well). […]
The biotinylated monoclonal antibody against human Factor Bb (Quidel) was then added at 0.125 μg/ml to detect the bound Factor B. Streptavidin-HRP was then diluted at 1:200 in blocking buffer (25 μL/well) and the plate was agitated for 30 minutes at room temperature. The plate was developed with ELISABright, (50 μL/well) for 1 minute at room temperature and read in the EnVision plate reader. […]

Data set [5] addresses T1, Human Factor B. As to the kind of experiment: Mass spectrometry identification of Factor B cleavage sites. Here is the method: FIG. 9 depicts mass spectrometry (MS) data identifying the cleavage site at 234 Arg within the QQKR/KIV (SEQ ID NO: 9) cleavage site of Factor B by KLK5, and identifying the cleavage site at ^221Asp within the EGVDAE (SEQ ID NO: 13) cleavage site of Factor B by the chymase-based engineered protease C22S/A226R. Briefly, human Factor B (Comptech) was incubated at 2 μM with different concentration of Kallikrein 5 (KLK5, R&D Systems) or the chymase-based engineered protease C22S/A226R at 10 nM or 100 pM for 10 minutes to 1 hour at 37° C. in 20 mM Tris pH 8 buffer with 16-0 or 18-0 water. The reaction was quenched with 20 μM of inhibitor FFR-CMK for 30 minutes at room temperature. Half of the sample was further treated with Rapidgest/chymotrypsin and adjusted to pH 3 by the addition of […] 1% TFA. TCEP (100 mM final concentration) was then added to reduce disulfides for 30 minutes at 37° C. […] of each sample was bound to a Ziptip (Millipore) and eluted with […] 80% ACN-0.1% TFA. After drying in a Speedvac, the samples were re-dissolved in […] of 30% ACN-0.05% TFA. 0.35 mL of the sample was loaded with 0.45 mL of CHCA matrix (10 mg/mL) onto an OptiPlate, and analyzed by MALDI-MS (ABI 4700) in both linear (m/z 2-22k) and reflector (m/z 1500-5400) mode. The tandem MS was carried out on peptides of interest when possible. Two large peptide fragments were detected at […] and 59 kDa. In summary, 100 pM KLK5 cleaves at 1 of 38 Arg in a 10 minute reaction and in 4 out of 38 Arg in a 60 minute reaction (Arg175, Arg193, Arg730 and Arg739). At 10 nM, cleavage was detected in […] in 10 and 60 minute reactions (Arg50, Arg74, Arg94, Arg175, Arg182, Arg193, Arg202, Arg203, Arg259, Arg381, Arg415, Arg658, Arg679, Arg708, Arg710, Arg730, Arg739). The earliest cleavage event was at Arg 730.
The reconstructed ion chromatograms shown in FIG. 9 are of reaction products from Kallikrein-5 (“KLK”), the chymase-based engineered protease C22S/A226R (“chymase-based”), and plasma derived-Factor B (“Fb control”). […] In contrast, KLK5 cleaves Factor B at ^234 Arg (peak at 4.69 minutes, MW 61437).

Where [6] appears, read: concentration 0.33 (unit uncertain).
The mark [7] stands for this setting: concentration 1 (unit uncertain).
[8] abbreviates: concentration 3 (unit uncertain).
The mark [9] stands for this setting: concentration 10 (unit uncertain).

T1 sequence (P00751 26-764): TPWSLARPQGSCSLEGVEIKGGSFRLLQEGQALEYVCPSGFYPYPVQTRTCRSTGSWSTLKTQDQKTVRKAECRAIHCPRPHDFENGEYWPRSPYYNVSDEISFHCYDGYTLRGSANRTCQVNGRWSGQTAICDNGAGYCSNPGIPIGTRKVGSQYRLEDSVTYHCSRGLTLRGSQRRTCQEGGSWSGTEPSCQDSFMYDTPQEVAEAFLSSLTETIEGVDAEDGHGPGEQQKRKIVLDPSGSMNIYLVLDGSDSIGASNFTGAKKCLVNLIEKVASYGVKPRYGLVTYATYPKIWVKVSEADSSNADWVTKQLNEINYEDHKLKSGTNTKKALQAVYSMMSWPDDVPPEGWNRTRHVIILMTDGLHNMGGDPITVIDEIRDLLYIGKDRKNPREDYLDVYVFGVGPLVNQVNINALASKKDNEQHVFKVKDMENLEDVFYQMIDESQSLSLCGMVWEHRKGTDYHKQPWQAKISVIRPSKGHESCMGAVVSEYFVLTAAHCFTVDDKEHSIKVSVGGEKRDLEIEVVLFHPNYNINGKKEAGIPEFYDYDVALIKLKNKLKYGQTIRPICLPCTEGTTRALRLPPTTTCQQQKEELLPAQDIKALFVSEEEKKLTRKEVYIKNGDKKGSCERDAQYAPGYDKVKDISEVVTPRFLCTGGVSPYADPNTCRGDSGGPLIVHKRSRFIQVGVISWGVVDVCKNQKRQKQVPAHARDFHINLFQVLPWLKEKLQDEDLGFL

On to `CCO[C@H]1CCN(Cc2c(OC)cc(C)c3[nH]ccc23)[C@H](c2ccc(C(=O)O)cc2)C1` [LNP023], for which the “% Hemolysis” value in data set [1] (setting [6]) turned out to be 0%; in data set [1] (setting [7]) it was 1.16%; in data set [1] (setting [8]), 0%; in data set [1] (setting [9]), 0%; in data set [2] (setting [6]), 102.50%; in data set [2] (setting [7]) it was 108.48%. In addition, the “% Hemolysis” value was determined as 33.94% in data set [2] (setting [8]) and 0% in data set [2] (setting [9]).

Regarding “KLK5: Kallikrein-related peptidase 5 protease (R&D Systems)”, the inhibition of hemolysis entry in data set [3] is listed as “effective in inhibition of hemolysis”. Besides, the “cleavage of Factor B (ELISA)” value with Human Factor B [4] is given as “effective in cleavage Factor B”. In addition, the earliest cleavage event entry in the data set with Human Factor B [5] is “Arg 730”. For the same compound, the “remaining intact Factor B (reconstructed ion chromatogram)” value with Human Factor B [5] is “No remaining intact Factor B”. Further, the “number of Arg of Factor B cleaved” value is 1 of 38 with Human Factor B [5] (100 pM, 10 minute reaction); 4 out of 38 with Human Factor B [5] (100 pM, 60 minute reaction); 18 of 38 in the data set with Human Factor B [5] (10 nM, 10 and 60 minute reactions).
